Source: ChEMBL document CHEMBL5528044, “Exploring the Function of (+)-Naltrexone Precursors: Their Activity as TLR4 Antagonists and Potential in Treating Morphine Addiction” (J Med Chem, 2024)
The source made the active and inactive calls. The calls are words filed in the database; no cut-off is given here.

How the values were obtained:
Mus musculus [1] = experiment: Inhibition of morphine-induced addiction behavior in Balb/c mouse assessed as decrease in locomotor activity at 0.005 to 0.2 mg/kg,ip administrated on day 4 to 10 by open-field test; format: functional, organism-based; conditions: dose 0.005-0.2 mg/kg, time 7.0 day
Mus musculus [2] = experiment: Inhibition of chronic morphine-induced microglia activation in Balb/c mouse assessed as reduction in Iba1 expression in brain medial prefrontal cortex region at 0.2 mg/kg,ip administrated for 6 consecutive days by immunofluorescence staining based analysis; format: functional, organism-based
[3] = target: T1, Toll-like receptor 4 (Mus musculus) (UniProt Q9QUK6); experiment: Antagonist activity at TLR4 signaling pathway in mouse BV-2 cells assessed as downregulation of LPS-induced JNK phosphorylation at 5 uM incubated for 1 hr by Western blot analysis; format: cell-based; conditions: filed as antagonist
T1 sequence (whole entry): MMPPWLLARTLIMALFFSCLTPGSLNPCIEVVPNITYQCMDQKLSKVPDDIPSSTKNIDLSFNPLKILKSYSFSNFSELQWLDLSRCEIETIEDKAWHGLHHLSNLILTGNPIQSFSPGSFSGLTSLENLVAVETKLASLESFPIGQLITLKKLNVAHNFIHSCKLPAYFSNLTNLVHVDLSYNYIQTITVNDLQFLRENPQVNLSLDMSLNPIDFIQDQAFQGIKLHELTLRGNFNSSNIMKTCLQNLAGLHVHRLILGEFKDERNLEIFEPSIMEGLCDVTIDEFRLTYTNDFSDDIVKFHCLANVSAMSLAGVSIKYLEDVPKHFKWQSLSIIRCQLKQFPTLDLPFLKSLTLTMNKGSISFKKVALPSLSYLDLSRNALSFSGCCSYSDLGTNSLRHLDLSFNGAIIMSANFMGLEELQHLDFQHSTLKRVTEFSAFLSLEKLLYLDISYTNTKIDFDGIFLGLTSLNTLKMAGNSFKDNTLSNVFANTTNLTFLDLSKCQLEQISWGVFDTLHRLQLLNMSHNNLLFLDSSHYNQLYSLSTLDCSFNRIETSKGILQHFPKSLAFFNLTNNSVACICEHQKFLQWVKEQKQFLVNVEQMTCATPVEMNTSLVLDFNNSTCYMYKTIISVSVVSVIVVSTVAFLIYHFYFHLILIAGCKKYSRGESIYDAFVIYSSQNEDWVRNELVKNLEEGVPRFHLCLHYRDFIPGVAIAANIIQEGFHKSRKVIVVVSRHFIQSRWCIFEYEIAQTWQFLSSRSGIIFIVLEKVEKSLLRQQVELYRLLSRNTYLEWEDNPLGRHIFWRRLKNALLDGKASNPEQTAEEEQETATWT

[4] = target: T1, Toll-like receptor 4 (Mus musculus); experiment: Antagonist activity at TLR4 signaling pathway in mouse BV-2 cells assessed as downregulation of LPS-induced IKKalpha phosphorylation at 5 uM incubated for 1 hr by Western blot analysis; format: cell-based; conditions: filed as antagonist
Mus musculus [5] = experiment: Inhibition of morphine-induced addiction behavior in Balb/c mouse assessed as decrease in morphine-induced behavioral sensitization during induction phase at 0.005 to 0.2 mg/kg,ip administrated on day 4 to 10 by open-field test; format: functional, organism-based; conditions: dose 0.005-0.2 mg/kg, time 7.0 day
Mus musculus [6] = experiment: Inhibition of chronic morphine-induced microglia activation in Balb/c mouse assessed as reduction in Iba1 expression in brain ventral tegmental area region at 0.2 mg/kg,ip administrated for 6 consecutive days by immunofluorescence staining based analysis; format: functional, organism-based
[7] = target: T1, Toll-like receptor 4 (Mus musculus); experiment: Antagonist activity at TLR4 signaling pathway in mouse BV-2 cells assessed as downregulation of LPS-induced ERK phosphorylation at 5 uM incubated for 1 hr by Western blot analysis; format: cell-based; conditions: filed as antagonist
Mus musculus [8] = experiment: Inhibition of chronic morphine-induced microglia activation in Balb/c mouse assessed as reduction in microglia cell number in brain nucleus accumbens region at 0.2 mg/kg,ip administrated for 6 consecutive days by immunofluorescence staining based analysis; format: functional, organism-based
Mus musculus [9] = experiment: Inhibition of chronic morphine-induced microglia activation in Balb/c mouse assessed as reduction in TNF-alpha mRNA expression in brain medial prefrontal cortex region at 0.2 mg/kg,ip administrated for 6 consecutive days by qPCR analysis; format: functional, organism-based
[10] = target: T1, Toll-like receptor 4 (Mus musculus); experiment: Antagonist activity at TLR4 in mouse BV-2 cells assessed as inhibition of LPS-induced NF-kappaB activation at 4 uM incubated for 24 hrs by dual-glo luciferase assay; format: cell-based; conditions: filed as antagonist
Mus musculus [11] = experiment: Inhibition of chronic morphine-induced microglia activation in Balb/c mouse assessed as reduction in microglia cell number in brain ventral tegmental area region at 0.2 mg/kg,ip administrated for 6 consecutive days by immunofluorescence staining based analysis; format: functional, organism-based
[12] = Half life in Balb/c mouse at 2 mg/kg,iv administration and measured upto 24 hrs by LC-MS/MS analysis; format: ADME, organism-based; conditions: in vivo
[13] = target: T1, Toll-like receptor 4 (Mus musculus); experiment: Antagonist activity at TLR4 signaling pathway in mouse BV-2 cells assessed as inhibition of LPS-induced MyD88 recruitment at 5 uM incubated for 1 hr by co-immunoprecipitation based Western blot analysis; format: cell-based
[14] = Tmax in Balb/c mouse at 20 mg/kg,po administration and measured upto 24 hrs by LC-MS/MS analysis; format: ADME, organism-based; conditions: in vivo
[15] = Toxicity in morphine-induced Balb/c mouse assessed body weight loss at 0.2 mg/kg,ip administrated for 1 week; format: organism-based; conditions: in vivo, 168 h, time 1 weeks
[16] = Oral bioavailability in Balb/c mouse at 20 mg/kg administration and measured upto 24 hrs by LC-MS/MS analysis; format: ADME, organism-based; conditions: in vivo
Toll-like receptor 4 = target: T2, Toll-like receptor 4 (Mus musculus, UniProt Q9QUK6); experiment: Antagonist activity at TLR4 in mouse BV-2 cells assessed as inhibition of LPS-induced TNF-alpha production by ELISA; format: cell-based
T2 sequence (Q9QUK6 whole entry): T1 sequence (whole entry)

Mus musculus [17] = experiment: Inhibition of chronic morphine-induced microglia activation in Balb/c mouse assessed as reduction in microglia cell number in brain medial prefrontal cortex region at 0.2 mg/kg,ip administrated for 6 consecutive days by immunofluorescence staining based analysis; format: functional, organism-based
Mus musculus [18] = experiment: Inhibition of chronic morphine-induced microglia activation in Balb/c mouse assessed as reduction in Iba1 expression in nucleus accumbens region at 0.2 mg/kg,ip administrated for 6 consecutive days by immunofluorescence staining based analysis; format: functional, organism-based
[19] = target: T1, Toll-like receptor 4 (Mus musculus); experiment: Antagonist activity at TLR4 signaling pathway in mouse BV-2 cells assessed as inhibition of LPS-induced TRIF recruitment at 5 uM incubated for 1 hr by co-immunoprecipitation based Western blot analysis; format: cell-based; conditions: filed as antagonist
[20] = Half life in Balb/c mouse at 20 mg/kg,po administration and measured upto 24 hrs by LC-MS/MS analysis; format: ADME, organism-based; conditions: in vivo
[21] = Volume of distribution at steady state in Balb/c mouse at 2 mg/kg,iv administration and measured upto 24 hrs by LC-MS/MS analysis; format: ADME, organism-based; conditions: in vivo, read-out: Vdss
[22] = Cmax in Balb/c mouse at 20 mg/kg,po administration and measured upto 24 hrs by LC-MS/MS analysis; format: ADME, organism-based; conditions: in vivo
[23] = target: T1, Toll-like receptor 4 (Mus musculus); experiment: Antagonist activity at TLR4 signaling pathway in mouse BV-2 cells assessed as downregulation of LPS-induced IRF-3 phosphorylation at 5 uM incubated for 1 hr by Western blot analysis; format: cell-based; conditions: filed as antagonist
[24] = target: T1, Toll-like receptor 4 (Mus musculus); experiment: Antagonist activity at TLR4 signaling pathway in mouse BV-2 cells assessed as downregulation of LPS-induced IKKbeta phosphorylation at 5 uM incubated for 1 hr by Western blot analysis; format: cell-based; conditions: filed as antagonist

Compound	inhibition (Mus musculus [1])	inhibition (Mus musculus [2])	Activity [3]	Activity [4]	inhibition (Mus musculus [5])	inhibition (Mus musculus [6])	Activity [7]	inhibition (Mus musculus [8])	inhibition (Mus musculus [9])	Activity [10]	inhibition (Mus musculus [11])	half-life [12] [h]	Activity [13]	Tmax [14] [h]	Activity [15]	bioavailability [16] [%]	IC50 (Toll-like receptor 4) [µM]	inhibition (Mus musculus [17])	inhibition (Mus musculus [18])	Activity [19]	other results
CN1CC[C@@]23c4c5ccc(O)c4O[C@@H]2C(=O)C=C[C@]3(O)[C@@H]1C5 (single isomer, unassigned)	Dose-Dependent Effect	Active	Active	Active	Dose-Dependent Effect	Active	Active	inactive	Active	Active	Active	2.2	inactive	1.2	Non-Toxic	41.1	2.3	Active	Active	Active	half-life [20]: 8.9 h; Vd [21]: 75.5 L/kg; Cmax [22]: 51.5 ng/mL; Activity [23]: Active; Activity [24]: Active
COc1ccc2c3c1O[C@@H]1C(=O)C=C[C@]4(O)[C@H](C2)N(C)CC[C@@]314 (single isomer, unassigned)	Dose-Dependent Effect	Active	Active	Active	Dose-Dependent Effect	Active	Active	inactive	Active	Active	Active	0.6	inactive	1.2	Non-Toxic	54.3	4.2	Active	Active	Active	half-life [20]: 2.2 h; Vd [21]: 97 L/kg; Cmax [22]: 25 ng/mL; Activity [23]: Active; Activity [24]: Active
